Key:
[1] = tested on: wound region of rabbit ears (granulation tissue, capillaries); test: In vivo wound healing assay (rabbit ear wounds); set-up: species or system New Zealand White rabbits; settings: for Area of granulation tissue / Number of blood vessels / increment of the area of granulation tissue, in words / increment of the number of blood vessels, in words: 5 μM; for Area of granulation tissue / Number of blood vessels: spotted or injected intradermally to wound, negative control = 100%; for increment of the area of granulation tissue, in words / increment of the number of blood vessels, in words: comment on Table 1
Method: Female New Zealand White rabbits (body weight 2.0 kg) were used as experimental animals in this assay. PBS solution containing 0.1% BSA (BSA-PBS solution) was prepared as control solution for negative control group (comparative example 1). sphingosylphosphorylcholine (comparative example 2), phytosphingosine (comparative example 3), N-acethylphytosphingosine (comparative example 4) as positive control group, and tetraacetyl phytosphingosine (example 1) were dissolved in ethanol or methanol respectively. Each portion of the solutions was added to silicone glass tube. Then, it was charged with N2 gas, and added 0.1% BSA-PBS solution. After coupling them with water sonicator and vortex, these solutions were spotted on and injected intradernally to wound region of experimental animals. At the same time, to study an effect of the angiogenesis as concentrations of tetraacethylsphingosine, the animal was treated with 0.1 μM, 1 μM, 2 μM and 5 μM of tetraacethylsphingosine, and campared with the results. Experimental animals were put into special stainless cages which was designed suitably to assay experimental animals, anesthetized by injecting ketanine (3-4 mg/kg) intramuscularly. The hair and corneous tissue of innerside of both ears were removed with shaving and washing, and then were disinfected with 70% ethanol. Four wound regions per ear were formed by using 6 mm punch for sldn histological examination (Stiefel, Germany) under sterile condition if possible, and each wound region was spotted or injected intradennally 30-50 μl of the control solution or each treatment material. Wound regions were sealed with cathereep (Nichiban Co., Tokyo Japan) which was cut in size which are greater than that of wound region to prevent contamination of the wound regions and formation of crust. Then, the wound regions were protected with 2×2 gauze, and ears of rabbit were bandaged with elastopore (Nichiban Co., Tokyo Japan). Subsequently, the rabbits were bred in a cage per a rabbit. After 48 hrs, same procedure was repeated. On 4 days and 8 days after forming wound regions, sacrificing the rabbits and treating tissue for histological study. For histological study, wound tissues were fixed with 10% formalin, cut it in half longitudinally and made paraffin block. Then, approximately 5 μm of segment was made, attached it to slide and stained with hematoxylin and eosin to observe a change of epidermis and dermis, and stained with Massons Trichrome to observe a degree of collagen formation of granulation tissue.
First, stained tissue specimen was calibrated with ocular micrometer of optical microscope for image analysis. Then, After photographing each histological change aspects with digital camera under 40× and 100× objective lens and saving them on computer (Pentium III), image analysis was carried out with Scion Image for Windows software which was provided by (C) 2000 Scion corporation as follows: that is, degree of epidermis migration could be determined by measuring the distance from left to right boundary of wound, and thickness of newly formed epidermis could be determined by measuring the thickness of three spots in 1 mm of pitch and averaging measured values. To compare with degree of granulation tissue formation of dermis, three methods were used: 1) A method of measuring total area of newly formed granulation tissue and comparing with it; 2) A method of counting the number of cells such as fibroblast presented in six spots of center region of wound under high magnification (100×) and comparing with it; and 3) A method of determining degree of angiogenesis by counting the number of capillaries in granulation tissue in a same way as described above. If there was eschar, it wasn't determined. The data obtained from the negative control group, the positive control group and the experinental group were analyzed statistically by carrying out paired student's t test. […]

[2] = tested on: endothelial cells; test: Migration assay of endothelial cells (Transwell); assay type: cell-based; settings: 0.1 μM, 1 μM and 5 μM; 2 hrs; fewer migrated cells with increasing concentration; FIG. 6 and FIG. 7
Method: Transwell membranes were coated with 0.2% gelatin, and then were left for 12 hrs at 4° C. The membrane for control group was treated with BSA-PBS as described in the above examples, whereas the membranes for experimental group were treated with 0.1 μM, 1 μM and 5 μM of tetraacetylphytosphingosine solution according to the present invention respectively as described in the above examples. After incubating these membranes for 2 hrs, staining them with Diff Quick solution, and then observing them on slide glass.

[3] = tested on: HUVEC (human umbilical vein endothelial cell); test: Angiogenesis test of HUVEC (tube formation test); assay type: cell-based; settings: FIG. 4 and FIG. 5
Method: Above suspension procedure was repeated twice.
Matrigel was prepared as follows: First, collagen solution was prepared by mixing commercially available acid-soluble porcine type I collagen (3.0 mg/ml), 5× DMEM and buffer (0.05 N NaOH, 2.2% NaHCO3, 200 mM HEPES; 7:2:1), loaded to 24 well or 96 well (100-300 μl/well) dividedly, and then incubated for approximately 10 mins to form a gel due to polymerization of collagen. Primary culture was carried to obtain HUVEC (those which were passaged five times), removed cells at 37° C., washed cells with PBS, detached cells with trypsin/EDTA, loaded cells to wells (4-6×10^4 cells/well), and then fiuther incubated for 12-18 hrs.

Row | Compound | Area of granulation tissue [1] | Number of blood vessels [1] | increment of the area of granulation tissue, in words [1] | increment of the number of blood vessels, in words [1] | migration of endothelial cells, in words [2] | formation of blood vessels (tube formation), in words ([3]; 0.1 μM) | formation of blood vessels (tube formation), in words ([3]; 1 μM) | number of blood vessels (angiogenesis), in words ([1]; 0.1 μM, 1 μM, 2 μM and 5 μM, 4 days after treatment, vs negative control, FIG. 1) | area of granulation tissue, in words ([1]; 0.1 μM, 1 μM, 2 μM and 5 μM, 4 days after treatment, vs negative control, FIG. 2)
1 | CCCCCCCCCCCCC/C=C/[C@@H](O)[C@@H](N)COP(=O)([O-])OCC[N+](C)(C)C [SPC, sphingosylphosphorylcholine] | 151% | 148% | prompted increment | prompted increment |  |  |  |  | 
2 | CCCCCCCCCCCCCC[C@@H](O)[C@@H](O)[C@@H](N)CO [PS, phytosphingosine] | 112% | 106% |  |  |  |  |  |  | 
3 | CCCCCCCCCCCCCC[C@@H](O)[C@@H](O)[C@H](CO)NC(C)=O [NAPS, N-acethylphytosphingosine] | 212% | 96% |  |  |  |  |  |  | 
4 | tetraacetylphytosphingosine [TAPS] | 76% | 31% | inhibited increment | inhibited increment | migration of endothelial cells were inhibited | inhibited effectively a formation of blood vessels | inhibited nearly completely a formation of blood vessels | inhibited angiogenesis greatly | decreased the area of granulation tissue

Source: patent US20060025377A1, “Inhibitor of angiogenesis and kit for treating cancer comprising the inhibitor” (priority 2002, published 2006)
